This passage reports IC50 results from ChEMBL document CHEMBL3638854, “Chemical compounds” (2015).

This assay has as its target T1, Ileal sodium/bile acid cotransporter (Homo sapiens, UniProt Q12908).
T1 sequence (Q12908 whole entry): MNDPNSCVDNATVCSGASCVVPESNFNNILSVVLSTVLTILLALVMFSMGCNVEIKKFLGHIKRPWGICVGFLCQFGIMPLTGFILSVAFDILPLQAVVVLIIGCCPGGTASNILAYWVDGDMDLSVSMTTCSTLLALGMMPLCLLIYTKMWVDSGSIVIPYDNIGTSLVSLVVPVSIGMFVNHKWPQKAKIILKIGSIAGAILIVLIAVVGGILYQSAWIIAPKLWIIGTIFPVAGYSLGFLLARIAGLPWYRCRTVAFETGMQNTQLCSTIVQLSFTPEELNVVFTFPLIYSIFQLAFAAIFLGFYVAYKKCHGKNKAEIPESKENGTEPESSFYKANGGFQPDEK
In words: Inhibition Assay: On the day of the uptake experiment, 10 mM HEPES was added to Hank's Balanced Salt Solution, and the pH was adjusted to 7.4 with TRIS (HBSSH). The assay buffer was prepared by adding 100 uM [3H]-taurocholate and 10 uM cold taurocholate to room temperature HBSSH. A separate washing buffer was prepared by adding 10 uM cold taurocholate to HBSSH (30 ml per assay plate) and placed on ice. Using 100% DMSO, 8 point, 3-fold dilution curves for each test compound was prepared starting at 200 uM. Similarly, an 8 point dose response curve was prepared of the control compound [(3R,5R)-3-butyl-3-ethyl-7,8-bis(methyloxy)-5-phenyl-2,3,4,5-tetrahydro-1,4-benzothiazepine 1,1-dioxide (Brieaddy, L. E. WO9605188, 1996)] starting at 1.8 mM. Drug plates were created by adding 3 uL of each concentration to a v-bottom 96-well plate then diluted 60-fold with 177 uL of assay buffer. Plates were removed from the incubator and allowed to cool to ambient temperature.

Broadly, the IC50 is the concentration that inhibits the measured activity by half. Turning to `CCCC[C@]1(CC)CS(=O)(=O)c2cc(CN[C@@H](CCS(C)(=O)=O)C(=O)O)c(OC)cc2[C@@H](c2ccccc2)N1`, the half-inhibitory concentration (IC50) is 13 nM.
